Tested on: GRMD plasma proteins
Assay type: in vivo, dog
Settings: Post-Treatment to GRMD baseline; Increased in GRMD

SMILES: O=c1ccc(-c2cnc(OCC(F)(F)F)nc2)nn1Cc1cncc(F)c1 [EDG-5506]
- Change from GRMD Baseline (fraction): Apolipoprotein E (isoform E3) (APOE): 0.08 fraction
- Change from GRMD Baseline (fraction): Apolipoprotein E (isoform E4) (APOE): 0.1456 fraction
- Change from GRMD Baseline (fraction): Apoptosis regulator Bcl-2 (BCL2): 0.0105 fraction
- Change from GRMD Baseline (fraction): Artemin (ARTN): -0.0439 fraction
- Change from GRMD Baseline (fraction): Arylsulfatase B (ARSB): -0.1402 fraction
- Change from GRMD Baseline (fraction): B-cell receptor CD22 (CD22): -0.069 fraction
- Change from GRMD Baseline (fraction): Baculoviral IAP repeat-containing protein 5 (BIRC5): 0.0116 fraction
- Change from GRMD Baseline (fraction): Basal Cell Adhesion Molecule (BCAM): -0.0408 fraction
- Change from GRMD Baseline (fraction): Bcl-2-like protein 1 (BCL2L1): 0.0111 fraction
- Change from GRMD Baseline (fraction): Bone sialoprotein 2 (IBSP): -0.0621 fraction
- Change from GRMD Baseline (fraction): C-C motif chemokine 13 (CCL13): -0.0609 fraction
- Change from GRMD Baseline (fraction): C-C motif chemokine 23 (CCL23): -0.0197 fraction
- Change from GRMD Baseline (fraction): CCAAT/enhancer-binding protein beta (CEBPB): -0.0884 fraction
- Change from GRMD Baseline (fraction): CD59 glycoprotein (CD59): 0.0101 fraction
- Change from GRMD Baseline (fraction): Calcineurin (PPP3CA PPP3R1): -0.1169 fraction
- Change from GRMD Baseline (fraction): Calcineurin subunit B type 1 (PPP3R1): 0.0394 fraction
- Change from GRMD Baseline (fraction): Calcium/calmodulin-dependent protein kinase type 1 (CAMK1): -0.0409 fraction
- Change from GRMD Baseline (fraction): Calcium/calmodulin-dependent protein kinase type 1D (CAMK1D): -0.0326 fraction
- Change from GRMD Baseline (fraction): Calcium/calmodulin-dependent protein kinase type II subunit alpha (CAMK2A): -0.2874 fraction
- Change from GRMD Baseline (fraction): Calcium/calmodulin-dependent protein kinase type II subunit beta (CAMK2B): -0.2753 fraction
- Change from GRMD Baseline (fraction): Calcium/calmodulin-dependent protein kinase type II subunit delta (CAMK2D): -0.216 fraction
- Change from GRMD Baseline (fraction): Calpain I (CAPN1 CAPNS1): 0.0953 fraction
- Change from GRMD Baseline (fraction): Calpastatin (CAST): -0.0561 fraction
- Change from GRMD Baseline (fraction): Carbonic anhydrase 3 (CA3): -0.1807 fraction
- Change from GRMD Baseline (fraction): Cardiotrophin-1 (CTF1): -0.0345 fraction
- Change from GRMD Baseline (fraction): Catalase (CAT): -0.0112 fraction
- Change from GRMD Baseline (fraction): Choline/ethanolamine kinase (CHKB): -0.0392 fraction
- Change from GRMD Baseline (fraction): Chymase (CMA1): -0.0173 fraction
- Change from GRMD Baseline (fraction): Clusterin (CLU): 0.1057 fraction
- Change from GRMD Baseline (fraction): Complement component C6 (C6): 0.2667 fraction
- Change from GRMD Baseline (fraction): Complement component C8 (C8A C8B C8G): 0.004 fraction
- Change from GRMD Baseline (fraction): Complement factor D (CFD): 0.0267 fraction
- Change from GRMD Baseline (fraction): Creatine kinase M-type (CKM): -0.092 fraction
- Change from GRMD Baseline (fraction): Creatine kinase M-type:Creatine kinase B-type heterodimer (CKB CKM): -0.1124 fraction
- Change from GRMD Baseline (fraction): Cyclin-dependent kinase inhibitor 1B (CDKN1B): -0.1243 fraction
- Change from GRMD Baseline (fraction): Cysteine and glycine-rich protein 3 (CSRP3): -0.1208 fraction
- Change from GRMD Baseline (fraction): Cytochrome c (CYCS): -0.3895 fraction
- Change from GRMD Baseline (fraction): DNA repair protein RAD51 homolog 1 (RAD51): 0.0454 fraction
- Change from GRMD Baseline (fraction): Desmoglein-1 (DSG1): 0.0063 fraction
- Change from GRMD Baseline (fraction): Dickkopf-like protein 1 (DKKL1): -0.0126 fraction
- Change from GRMD Baseline (fraction): Down syndrome cell adhesion molecule (DSCAM): -0.0254 fraction
- Change from GRMD Baseline (fraction): Dual specificity mitogen-activated protein kinase kinase 1 (MAP2K1): -0.2424 fraction
- Change from GRMD Baseline (fraction): Dual specificity protein phosphatase 3 (DUSP3): -0.1403 fraction
- Change from GRMD Baseline (fraction): Dynein light chain roadblock-type 1 (DYNLRB1): -0.3202 fraction
- Change from GRMD Baseline (fraction): Ectonucleoside triphosphate diphosphohydrolase 1 (ENTPD1): -0.0389 fraction
- Change from GRMD Baseline (fraction): Endothelin-converting enzyme 1 (ECE1): -0.0078 fraction
- Change from GRMD Baseline (fraction): Ephrin type-A receptor 1 (EPHA1): -0.0034 fraction
- Change from GRMD Baseline (fraction): Ephrin type-B receptor 6 (EPHB6): 0.0412 fraction
- Change from GRMD Baseline (fraction): Epidermal growth factor (EGF): -0.0427 fraction
- Change from GRMD Baseline (fraction): Epidermal growth factor receptor variant III (EGFR): -0.0407 fraction
- Change from GRMD Baseline (fraction): Erythropoietin receptor (EPOR): -0.0103 fraction
- Change from GRMD Baseline (fraction): Estrogen receptor (ESR1): -0.0238 fraction
- Change from GRMD Baseline (fraction): Eukaryotic translation initiation factor 4H (EIF4H): -0.3775 fraction
- Change from GRMD Baseline (fraction): Eukaryotic translation initiation factor 4 gamma 2 (EIF4G2): -0.2701 fraction
- Change from GRMD Baseline (fraction): Extracellular matrix protein 1 (ECM1): 0.014 fraction
- Change from GRMD Baseline (fraction): Fibroblast growth factor 8 isoform B (FGF8): -0.0376 fraction
- Change from GRMD Baseline (fraction): Fibroblast growth factor 9 (FGF9): -0.0507 fraction
- Change from GRMD Baseline (fraction): Fibronectin Fragment 4 (FN1): -0.0265 fraction
- Change from GRMD Baseline (fraction): Follistatin (FST): -0.0231 fraction
- Change from GRMD Baseline (fraction): Fractalkine (CX3CL1): 0.0106 fraction

Reference: paper PMC10178848, “Modulating fast skeletal muscle contraction protects skeletal muscle in animal models of Duchenne muscular dystrophy” (The Journal of Clinical Investigation, 2023)
